Laboratory results published in PubChem BioAssay AID248 (DTP/NCI, 2004).
Values joined by “and” are separate entries in the source; they are usually repeats but may differ in a detail not shown here. Equal entries are not always repeated. Inconclusive results and toxic doses are left out.

Tested on: L1210 leukemia ip in BDF1 mice, survival T/C
Assay: NCI In Vivo Anticancer Drug Screen. Data for tumor model L1210 Leukemia (intraperitoneal) in B6D2F1 (BDF1) mice
Conditions: endpoint: mean survival time, higher = longer survival
How it was run: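 Tumor cells were implanted, animals were treated, and survival was followed. The result divides the treated measurement by the vehicle-control measurement.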

[1] = dose: 100.0 mg/kg/injection, schedule: Q01DX009 (ip), vehicle: saline
[2] = dose: 100.0 mg/kg/injection, schedule: Q04DX003 (ip), vehicle: Klucel (hydroxypropylcellulose) (HPC)
[3] = dose: 200.0 mg/kg/injection, schedule: Q04DX003 (ip), vehicle: Klucel (hydroxypropylcellulose) (HPC)
[4] = dose: 400.0 mg/kg/injection, schedule: Q04DX003 (ip), vehicle: Klucel (hydroxypropylcellulose) (HPC)
[5] = dose: 100.0 mg/kg/injection, schedule: Q04DX003 (ip), vehicle: saline with Tween-80
[6] = dose: 200.0 mg/kg/injection, schedule: Q04DX003 (ip), vehicle: saline with Tween-80
[7] = dose: 400.0 mg/kg/injection, schedule: Q04DX003 (ip), vehicle: saline with Tween-80
[8] = dose: 200.0 mg/kg/injection, schedule: Q04DX003 (ip), vehicle: saline
[9] = dose: 400.0 mg/kg/injection, schedule: Q04DX003 (ip), vehicle: saline
[10] = dose: 100.0 mg/kg/injection, schedule: Q04DX002 (ip), vehicle: Klucel (hydroxypropylcellulose) (HPC)
[11] = dose: 200.0 mg/kg/injection, schedule: Q04DX002 (ip), vehicle: Klucel (hydroxypropylcellulose) (HPC)
[12] = dose: 400.0 mg/kg/injection, schedule: Q04DX002 (ip), vehicle: Klucel (hydroxypropylcellulose) (HPC)
[13] = dose: 100.0 mg/kg/injection, schedule: Q04DX003 (ip), vehicle: gum acacia
[14] = dose: 200.0 mg/kg/injection, schedule: Q04DX003 (ip), vehicle: gum acacia
[15] = dose: 400.0 mg/kg/injection, schedule: Q04DX003 (ip), vehicle: gum acacia

C[C@H]1CN1C1=CC(=O)C(N2C[C@@H]2C)=CC1=O
T/C (dose: 0.88 mg/kg/injection, schedule: Q04DX003 (ip), vehicle: other): 106 % of control | T/C (dose: 1.0 mg/kg/injection, schedule: Q01DX001 (ip), vehicle: other): 108 % of control | T/C (dose: 1.56 mg/kg/injection, schedule: Q01DX009 (ip), vehicle: other): 120 % of control | T/C (dose: 2.0 mg/kg/injection, schedule: Q01DX001 (ip), vehicle: other): 105 % of control | T/C (dose: 2.0 mg/kg/injection, schedule: Q04DX003 (ip), vehicle: Klucel (hydroxypropylcellulose) (HPC)): 108 % of control | T/C (dose: 2.0 mg/kg/injection, schedule: Q04DX003 (ip), vehicle: other): 120 % of control | T/C (dose: 4.0 mg/kg/injection, schedule: Q04DX003 (ip), vehicle: Klucel (hydroxypropylcellulose) (HPC)): 117 % of control | T/C (dose: 5.0 mg/kg/injection, schedule: Q01DX009 (ip), vehicle: other): 166 % of control | T/C (dose: 8.0 mg/kg/injection, schedule: Q04DX003 (ip), vehicle: Klucel (hydroxypropylcellulose) (HPC)): 124 % of control | T/C (dose: 9.0 mg/kg/injection, schedule: Q04DX003 (ip), vehicle: saline with Tween-80): 95 % of control | T/C (dose: 9.5 mg/kg/injection, schedule: Q01DX001 (ip), vehicle: other): 114 % of control | T/C (dose: 12.0 mg/kg/injection, schedule: Q01DX009 (ip), vehicle: other): 92 % of control | T/C (dose: 25.0 mg/kg/injection, schedule: Q04DX003 (ip), vehicle: saline with Tween-80): 105 % of control

CC(C)(C)C1(C)CC1(Br)Br (centres undefined)
T/C (dose: 50.0 mg/kg/injection, schedule: Q01DX009 (ip), vehicle: saline): 98 % of control | T/C [1]: 101 % of control | T/C (dose: 200.0 mg/kg/injection, schedule: Q01DX009 (ip), vehicle: saline): 98 % of control

CC1CCC2(NC1)OC1CC3C4CCC5CC(O)CCC5(C)C4CCC3(C)C1C2C (centres undefined)
T/C (dose: 100.0 mg/kg/injection, schedule: Q01DX001 (ip), vehicle: other): 94 % of control | T/C (dose: 200.0 mg/kg/injection, schedule: Q01DX001 (ip), vehicle: other): 91 % of control | T/C (dose: 400.0 mg/kg/injection, schedule: Q01DX001 (ip), vehicle: other): 94 % of control

C=C1C(=O)OC2/C=C(/CO)C3OC3C3OC3(C)CC(OC(=O)/C(C)=C\COC(C)=O)C12 (centres undefined)
T/C (dose: 25.0 mg/kg/injection, schedule: Q04DX003 (ip), vehicle: Klucel (hydroxypropylcellulose) (HPC)): 98 % of control | T/C (dose: 50.0 mg/kg/injection, schedule: Q04DX003 (ip), vehicle: Klucel (hydroxypropylcellulose) (HPC)): 104 % of control | T/C [2]: 94 % of control and 89 % of control

O=C(NC(Cc1cn(Cc2ccccc2)cn1)C(=O)O)OCc1ccccc1 (centres undefined)
T/C [2]: 104 % of control | T/C [3]: 104 % of control | T/C [4]: 97 % of control

CCOC(=O)C(C#N)(C1C=CCC1)C1C=CCC1 (centres undefined)
T/C [5]: 100 % of control | T/C [6]: 100 % of control | T/C [7]: 100 % of control

Nc1ccccc1SC1CC(=O)N(c2ccc(I)cc2)C1=O (centres undefined)
T/C (dose: 25.0 mg/kg/injection, schedule: Q04DX003 (ip), vehicle: other): 88 % of control | T/C (dose: 50.0 mg/kg/injection, schedule: Q04DX003 (ip), vehicle: other): 91 % of control | T/C (dose: 100.0 mg/kg/injection, schedule: Q01DX009 (ip), vehicle: other): 94 % of control | T/C (dose: 100.0 mg/kg/injection, schedule: Q04DX003 (ip), vehicle: other): 93 % of control | T/C (dose: 200.0 mg/kg/injection, schedule: Q01DX009 (ip), vehicle: other): 102 % of control | T/C [8]: 88 % of control | T/C (dose: 400.0 mg/kg/injection, schedule: Q01DX009 (ip), vehicle: other): 93 % of control | T/C [9]: 86 % of control

OC(CF)CF
T/C (dose: 25.0 mg/kg/injection, schedule: Q01DX009 (ip), vehicle: saline): 115 % of control | T/C [1]: 103 % of control

O=Cc1[nH]c(=O)[nH]c(=O)c1Cc1ccc(Cl)cc1
T/C [5]: 98 % of control | T/C [6]: 102 % of control

O=C1c2ccccc2C(=O)N1CC[P+](c1ccccc1)(c1ccccc1)c1ccccc1
T/C (dose: 1.56 mg/kg/injection, schedule: Q01DX009 (ip), vehicle: water): 106 % of control | T/C (dose: 3.12 mg/kg/injection, schedule: Q01DX009 (ip), vehicle: water): 107 % of control | T/C (dose: 6.25 mg/kg/injection, schedule: Q01DX009 (ip), vehicle: water): 108 % of control | T/C (dose: 12.5 mg/kg/injection, schedule: Q01DX009 (ip), vehicle: water): 110 % of control | T/C (dose: 25.0 mg/kg/injection, schedule: Q01DX009 (ip), vehicle: water): 98 % of control

CCOP(=O)(OCC)Oc1c(Cl)c(Cl)c(Cl)c(Cl)c1Cl
T/C [10]: 104 % of control | T/C [11]: 100 % of control | T/C [12]: 107 % of control

CC(Cc1ccc2c(c1)OCO2)[N+](=O)[O-] (centres undefined)
T/C (dose: 150.0 mg/kg/injection, schedule: Q04DX003 (ip), vehicle: saline with Tween-80): 102 % of control | T/C (dose: 300.0 mg/kg/injection, schedule: Q04DX003 (ip), vehicle: saline with Tween-80): 100 % of control

COc1ccc(-c2c(-c3ccccc3)oc3cc(O)ccc23)cc1
T/C [13]: 90 % of control | T/C [14]: 90 % of control | T/C [15]: 93 % of control

CN(C)C(=O)Sc1cccc([N+](=O)[O-])c1
T/C [5]: 109 % of control | T/C [6]: 111 % of control | T/C [7]: 103 % of control

CC12CC(c3ccccc3)C(C)(C(c3ccccc3)=C1c1ccccc1)C2(C)O (centres undefined)
T/C (dose: 100.0 mg/kg/injection, schedule: Q01DX001 (ip), vehicle: saline with Tween-80): 93 % of control | T/C (dose: 200.0 mg/kg/injection, schedule: Q01DX001 (ip), vehicle: saline with Tween-80): 100 % of control | T/C (dose: 400.0 mg/kg/injection, schedule: Q01DX001 (ip), vehicle: saline with Tween-80): 88 % of control

CC(=O)Oc1ccc(/C=N/NC(N)=S)nc1
T/C (dose: 24.0 mg/kg/injection, schedule: Q03HX024 (ip), vehicle: saline with Tween-80): 212 % of control | T/C (dose: 36.0 mg/kg/injection, schedule: Q03HX024 (ip), vehicle: saline with Tween-80): 339 % of control

CS(=O)(=O)NC[C@H](Cl)[C@@H](Cl)CNS(C)(=O)=O
T/C (dose: 100.0 mg/kg/injection, schedule: Q01DX001 (ip), vehicle: saline): 100 % of control | T/C (dose: 200.0 mg/kg/injection, schedule: Q01DX001 (ip), vehicle: saline): 102 % of control | T/C (dose: 400.0 mg/kg/injection, schedule: Q01DX001 (ip), vehicle: saline): 91 % of control

O=C1Cc2ccccc2/C=C\c2ccccc21
T/C (dose: 100.0 mg/kg/injection, schedule: Q01DX001 (ip), vehicle: Klucel (hydroxypropylcellulose) (HPC)): 97 % of control | T/C [2]: 102 % of control | T/C (dose: 200.0 mg/kg/injection, schedule: Q01DX001 (ip), vehicle: Klucel (hydroxypropylcellulose) (HPC)): 100 % of control | T/C [3]: 96 % of control | T/C (dose: 400.0 mg/kg/injection, schedule: Q01DX001 (ip), vehicle: Klucel (hydroxypropylcellulose) (HPC)): 106 % of control | T/C [4]: 102 % of control

Cc1ccc(N=C=O)cc1[N+](=O)[O-]
T/C (dose: 100.0 mg/kg/injection, schedule: Q01DX009 (ip), vehicle: gum acacia): 100 % of control | T/C [13]: 98 % of control | T/C (dose: 200.0 mg/kg/injection, schedule: Q01DX009 (ip), vehicle: gum acacia): 89 % of control | T/C [14]: 101 % of control | T/C (dose: 400.0 mg/kg/injection, schedule: Q01DX009 (ip), vehicle: gum acacia): 94 % of control | T/C [15]: 90 % of control

CS(=O)(=O)OCCC(COS(C)(=O)=O)S(=O)(=O)Cc1ccccc1 (centres undefined)
T/C (dose: 15.0 mg/kg/injection, schedule: Q01DX001 (ip), vehicle: saline): 101 % of control | T/C (dose: 30.0 mg/kg/injection, schedule: Q01DX001 (ip), vehicle: saline): 104 % of control

Nc1nc(N)c(CCCOc2ccccc2)c(-c2ccccc2)n1
T/C [10]: 105 % of control | T/C [11]: 101 % of control | T/C [12]: 101 % of control

O=C(c1ccccc1)C(Br)S(=O)(=O)C(Br)C(=O)c1ccccc1 (centres undefined)
T/C (dose: 100.0 mg/kg/injection, schedule: Q04DX003 (ip), vehicle: saline): 107 % of control | T/C [8]: 107 % of control | T/C [9]: 109 % of control
